Patent US20240252463A1, “METHODS OF TREATING FIBROTIC PATHOLOGIES” (Mayo Foundation for Medical Education and Research, priority 2018, published 2024)
Counter-ions that a name gives are not always drawn. Like-named read-outs stand apart in the source and are kept apart here.

Tests used:
αSMA = αSMA intensity (fibroblast activation) in IPF patient-derived lung fibroblasts + TGFβ; format: cell-based, human; conditions: 1 μM + TGFβ, treated for 72 hours; for activity at 1 µM: Homo sapiens, SMA
Protocol: (§1) ImmunofluorescenceMicroscopy: Cells were plated into 96 well plates (Corning 3603) in their specific growth media and allowed to attach (8 hours). Media was then exchanged for the indicated conditions for each experiment. Cells were fixed in 3.7% formalin (Sigma-Aldrich), permeabilized in 0.25% Triton X-100 (Sigma-Aldrich) and then blocked with 1% BSA for 1 h. Cells or tissue sections were incubated overnight with mouse monoclonal antibody against αSMA (Sigma-Aldrich F3777), and/or a rabbit monoclonal antibody against YAP/TAZ (Cell Signaling D24E4) diluted 1:200 in PBS with 1% BSA. Cells were then washed and exposed to flourescence-conjugated secondary antibodies (Invitrogen) diluted 1:1000 and DAPI (Thermo Fisher Scientific). Images were taken with a Cytation5 (BioTek) microscope. For scoring αSMA positive cells (FIG. 3b), an observer blinded to the treatment conditions counted αSMA-positive cells using a visual threshold for bright fibrous staining; a minimum of 200 cells was counted for each condition. YAP/TAZ localization was quantified (FIG. 2, 6, 8) using Gen5 (Biotek) software. Images were taken at 4× magnification of both DAPI and YAP/TAZ staining. […] Quantification of double positive (YAP/TAZ and αSMA) cells from lung tissue sections (FIG. 4d) was performed similarly; however separate thresholds were established for both YAP/TAZ and αSMA. A minimum of 4000 cells was quantified for each mouse.

YAP/TAZ = YAP/TAZ nuclear localization (immunofluorescence, automated imaging) in IPF patient-derived lung fibroblasts; format: cell-based, human; conditions: 10 μM, treated 2 hours prior to fixation; for Nuclear localization (% of total cells) IPF-1: patient sample IPF-1; for Nuclear localization (% of total cells) IPF-2: patient sample IPF-2; for Nuclear localization (% of total cells) IPF-3: patient sample IPF-3; for Nuclear localization (% of total cells) IPF-4: patient sample IPF-4
Protocol: 27A. […] IPF patient-derived lung fibroblasts cells treated 2 hours prior to fixation with diverse dopaminergic agonists (10 μM). N=4 different patient samples. % nuclear localization of YAP/TAZ was determined using automated imaging software. Scale bar represents 100 μm. 27C. cAMP measured in IPF patient-derived fibroblasts treated for 20 minutes with DHX. N=3. 27E.
as §1

[1] = patient sample IPF-1, read-out: αSMA intensity (% of DMSO control) IPF-1
[2] = patient sample IPF-2, read-out: αSMA intensity (% of DMSO control) IPF-2
[3] = patient sample IPF-3, read-out: αSMA intensity (% of DMSO control) IPF-3
[4] = patient sample IPF-4, read-out: αSMA intensity (% of DMSO control) IPF-4

| Compound | αSMA intensity (% of DMSO control) IPF-1 (αSMA; patient sample IPF-1) | αSMA intensity (% of DMSO control) IPF-2 (αSMA; patient sample IPF-2) | αSMA intensity (% of DMSO control) IPF-3 (αSMA; patient sample IPF-3) | αSMA intensity (% of DMSO control) IPF-4 (αSMA; patient sample IPF-4) | Nuclear localization (% of total cells) IPF-1 (YAP/TAZ) | Nuclear localization (% of total cells) IPF-2 (YAP/TAZ) | Nuclear localization (% of total cells) IPF-3 (YAP/TAZ) | Nuclear localization (% of total cells) IPF-4 (YAP/TAZ) | activity at 1 µM (αSMA; [1]) [%] | activity at 1 µM (αSMA; [2]) [%] | activity at 1 µM (αSMA; [3]) [%] | activity at 1 µM (αSMA; [4]) [%] |
| --- | --- | --- | --- | --- | --- | --- | --- | --- | --- | --- | --- | --- |
| CCCN(CCC)[C@@H]1CCc2c(OC)cccc2[C@@H]1C.O=C(O)/C=C\C(=O)O [(+)-UH 232 maleate] | 82.91 % of DMSO control | 63.85 % of DMSO control | 85.81 % of DMSO control | 65.71 % of DMSO control | 61.9521 % of total cells | 68 % of total cells | 71.85 % of total cells | 67.27 % of total cells |  |  |  |  |
| c1cnc(N2CCN(Cc3ccc4c(c3)OCO4)CC2)nc1 [Piribedil•2HCl, Piribedil] |  |  |  |  |  |  |  |  | 70.4 | 61.5 | 71.5 | 41.2 |
| CC(C)C[C@H]1C(=O)N2CCC[C@H]2[C@]2(O)O[C@](NC(=O)[C@@H]3C=C4c5cccc6[nH]c(Br)c(c56)C[C@H]4N(C)C3)(C(C)C)C(=O)N12 [Bromocriptine mesylate, Bromocriptine] |  |  |  |  |  |  |  |  | 54.1 | 53.6 | 61.1 | 34.1 |
| CCCN[C@H]1CCc2nc(N)sc2C1 [Pramipexole Dihydrochloride Monohydrate, Pramipexole] |  |  |  |  |  |  |  |  | 87.6 | 73.2 | 82.8 | 89.9 |
| NCCc1ccc(O)cc1 [4-Hydroxyphenethylamine•HCl, 4-Hydroxyphenethylamine] |  |  |  |  |  |  |  |  | 99.7 | 93.4 | 95.7 | 88.3 |
| Br.NC1CCc2cc(O)c(O)cc2C1 (stereo not drawn) [6,7-ADTN•HBr, 6,7-ADTN] | 37.14 % of DMSO control | 4.182 % of DMSO control | 9.909 % of DMSO control | 4.888 % of DMSO control | 43.89 % of total cells | 44 % of total cells | 65.5 % of total cells | 52.65 % of total cells |  |  |  |  |
| CNCCc1ccc(O)c(O)c1 [N-Methyldopamine•HCl, N-Methyldopamine] |  |  |  |  | 43.16 % of total cells | 46.73 % of total cells | 60.11 % of total cells | 70.44 % of total cells | 43.2 | 17.7 | 29 | 14.7 |
| C=CCN1C[C@H](C(=O)N(CCCN(C)C)C(=O)NCC)C[C@@H]2c3cccc4[nH]cc(c34)C[C@H]21 [Cabergoline] |  |  |  |  |  |  |  |  | 76.9 | 48.1 | 77.1 | 45.8 |
| CCCN1CCO[C@@H]2c3cc(O)ccc3OC[C@H]21.Cl (racemic) [(±)-PD 128,907•HCl] | 83.68 % of DMSO control | 85.45 % of DMSO control | 94.2538 % of DMSO control | 75.15 % of DMSO control | 60.13 % of total cells | 49.54 % of total cells | 78.48 % of total cells | 60.66 % of total cells |  |  |  |  |
| NC[C@@H]1O[C@H](C23CC4CC(CC(C4)C2)C3)Cc2c1ccc(O)c2O [A-77636•HCl•H2O] |  |  |  |  | 26.46 % of total cells | 30.88 % of total cells | 41.33 % of total cells | 37.79 % of total cells | 5.81 | 0.719 | 0.0677 | 12.4 |
| Br.CCCN1CCc2cc(O)cc3c2[C@H]1Cc1ccc(O)c(O)c1-3 [R(−)-2,10,11-Trihydroxy-N-propyl-noraporphine] | 4.895 % of DMSO control | 8.436 % of DMSO control | 2.988 % of DMSO control | 25.61 % of DMSO control | 32.87 % of total cells | 35.25 % of total cells | 37.7 % of total cells | 25.36 % of total cells |  |  |  |  |
| R(−)-Propylnorapomorphine [R(−)-Propylnorapomorphine•HCl] | 5.081 % of DMSO control | 1.879 % of DMSO control | 5.561 % of DMSO control | 19.96 % of DMSO control | 28.35 % of total cells | 26.71 % of total cells | 42.74 % of total cells | 29.03 % of total cells |  |  |  |  |
| CN1C[C@@H](NS(=O)(=O)N(C)C)C[C@@H]2c3cccc4c3c(cn4C)C[C@H]21 [Mesulergine•HCl, Mesulergine] |  |  |  |  |  |  |  |  | 35.5 | 23.3 | 40 | 19.8 |
| Oc1cc2c(cc1O)[C@@H](c1ccccc1)CNCC2 [SKF 38393•HBr] |  |  |  |  |  |  |  |  | 37.1 | 26.8 | 31.2 | 20.8 |
| NCCc1cccc(O)c1 [3-Hydroxyphenethylamine•HCl, 3-Hydroxyphenethylamine] |  |  |  |  | 48.96 % of total cells | 56.92 % of total cells | 69.25 % of total cells | 58.37 % of total cells | 88.6 | 96.7 | 82.6 | 99.8 |
| CCCN(CCC)CCc1cccc2c1CC(=O)N2 [Ropinirole HCl, Ropinirole] |  |  |  |  |  |  |  |  | 72.2 | 53.5 |  | 62 |
| CN1Cc2ccccc2C2c3cccc4[nH]cc(c34)CC21 (stereo not drawn) [CY 208-243] |  |  |  |  | 20.52 % of total cells | 39.79 % of total cells | 41.17 % of total cells | 19.82 % of total cells | 21 | 2.28 | 2.61 | 9.64 |
| CCCN(CCC)CCc1ccc(O)c(O)c1 [Dipropyldopamine•HBr, Dipropyldopamine] | 48.72 % of DMSO control | 28.11 % of DMSO control | 40.34 % of DMSO control | 25.86 % of DMSO control | 69.18 % of total cells | 74.36 % of total cells | 65.5 % of total cells | 51.82 % of total cells |  |  |  |  |
| Cc1cccc(C(=O)NCN2CCN(c3ccccc3C#N)CC2)c1.O=C(O)/C=C\C(=O)O [PD 168077 maleate] | 75.27 % of DMSO control | 56.15 % of DMSO control | 75.77 % of DMSO control | 66.5 % of DMSO control | 67.08 % of total cells | 42.44 % of total cells | 63.68 % of total cells | 68.4 % of total cells |  |  |  |  |
| CCCN1C[C@H](CSC)C[C@@H]2c3cccc4[nH]cc(c34)C[C@H]21 [Pergolide mesylate, Pergolide] |  |  |  |  |  |  |  |  | 65 | 51.6 | 63.6 | 48.1 |
